Results from PubChem BioAssay (NCI).
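A five-concentration, 48-hour dose response in 96-well plates underlies each endpoint, interpolated linearly between surrounding concentrations. At the TGI there is no net growth.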

Assays:
Assay in all cases: NCI tumour cell line growth inhibition, 48 h
[1] = tested on: 786-0 renal
[2] = tested on: LXFL 529 NSCLC
[3] = tested on: RXF-631 renal
[4] = tested on: P388 leukemia
[5] = tested on: SN12K1 renal
[6] = tested on: DMS 273 small cell lung
[7] = tested on: P388/ADR leukemia

COc1c2occc2cc2ccc(=O)oc12
TGI [1]: > 100 µM

CCOC(=O)C1=C(C)N(C2OC(COC(C)=O)C(OC(C)=O)C(OC(C)=O)C2OC(C)=O)C(=O)NC1c1ccccc1 (configuration not stated)
TGI [2]: > 100 µM
TGI [3]: > 100 µM

COc1ccc(OCC(C)(C)O)cc1
TGI [4]: > 100 µM
TGI [5]: > 100 µM
TGI [6]: > 100 µM

CC(=O)OCc1nnn2c1CCC2
TGI [2]: > 100 µM

CCCCCCC(=O)c1ccc2ccccc2c1O
TGI [1]: > 100 µM

CCOC(=O)/C=C/c1c[nH]c(=O)[nH]c1=O
TGI [7]: > 75 µM
TGI [4]: > 75 µM
TGI [5]: > 75 µM
TGI [6]: > 75 µM
